From PubChem BioAssay (NCI)
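These data come from cells grown in 96-well plates and exposed to compound for 48 hours at five concentrations. GI50 = concentration required for 50% inhibition of growth. Definition used: TGI = concentration required for complete inhibition of growth.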

Columns and labels:
Assay in all cases: inhibition of tumour cell growth, NCI panel, 48 h
NCI-H460 lung = system: NCI-H460 lung
T-47D breast = system: T-47D breast
HS 578T breast = system: HS 578T breast
SK-MEL-2 melanoma = system: SK-MEL-2 melanoma
SNB-75 CNS = system: SNB-75 CNS
MCF7 breast = system: MCF7 breast
TK-10 renal = system: TK-10 renal
HL-60(TB) leukemia = system: HL-60(TB) leukemia

Structure (SMILES)	TGI (NCI-H460 lung) [µM]	TGI (T-47D breast) [µM]	TGI (HS 578T breast) [µM]	TGI (SK-MEL-2 melanoma) [µM]	TGI (SNB-75 CNS) [µM]	TGI (MCF7 breast) [µM]	TGI (TK-10 renal) [µM]	TGI (HL-60(TB) leukemia) [µM]	GI50 (NCI-H460 lung) [µM]	GI50 (HS 578T breast) [µM]	GI50 (SK-MEL-2 melanoma) [µM]	GI50 (MCF7 breast) [µM]	GI50 (TK-10 renal) [µM]	GI50 (HL-60(TB) leukemia) [µM]	GI50 (SNB-75 CNS) [µM]	GI50 (T-47D breast) [µM]
CC(C)=Cc1cc(CCC/C(C)=C/Cc2c(O)cc(C)c(C(=O)O)c2O)co1	> 100	> 100	> 100	> 100	> 100	> 100	> 100	–	–	–	–	–	–	–	–	–
CCc1ccc2oc(=O)ccc2c1	> 100	–	> 100	> 100	> 100	> 100	–	> 100	–	–	–	–	–	–	–	–
C1CSC[C@H]2COC[C@@H](CSCCS1)S2	> 100	> 100	–	–	> 100	> 100	> 100	> 100	–	–	–	–	–	–	–	–
O=C1OCC2=C1C(c1cccc(C(F)(F)F)c1)c1cc3c(cc1N2CCO)OCCO3 (stereo not drawn)	> 33.3	–	> 33.3	> 33.3	–	> 33.3	> 33.3	2.44	1.22	0.915	1.99	1.09	> 33.3	0.875	–	–
CC1CCCC(C#N)(NOC2=NCCN2)C1 (stereo not drawn)	> 100	–	> 100	> 100	> 100	> 100	46.2	93	43.3	52.3	57.3	42.2	12.9	16.8	40.3	–
Cc1nc(NS(=O)(=O)c2ccc(NCN3C(=O)c4ccccc4C3=O)cc2)oc1C	> 100	–	> 100	> 100	> 100	> 100	> 100	> 100	> 100	> 100	> 100	> 100	> 100	> 100	> 100	–
CC(C)[P+](c1ccccc1)(c1ccccc1)c1ccccc1	> 100	–	> 100	21.9	66	> 100	–	7.5	6.92	13.4	3.77	3.69	–	2.24	4.81	–
CCOC(=O)c1c(-c2ccccc2)[n+](=O)c2cc(F)c(F)cc2n1[O-]	–	–	6.26	> 100	3.64	10.5	32	3.77	–	2.38	3.47	2.76	16.6	0.717	1.75	–
O=C1CS/C(=N/S(=O)(=O)c2ccc(N3N=C4c5ccccc5CC4C3c3cccs3)cc2)N1C(=O)c1ccccc1 (stereo not drawn)	> 100	> 100	> 100	> 100	> 100	> 100	–	–	> 100	25.3	> 100	> 100	–	–	> 100	> 100
CC12OC(C(=O)C13CC3)C1C(=O)c3c(O)ccc(O)c3C(=O)C12 (stereo not drawn)	> 100	32	46.2	> 100	40.8	26.3	35.2	–	31.5	16.3	33.9	11.2	15.6	–	20.6	11.6
CC(C)(C)c1ccc(C2CC(=O)C3=C(C2)Nc2ccccc2N(C(=O)c2ccccc2Cl)C3c2ccc(F)cc2)cc1 (stereo not drawn)	> 100	> 100	> 100	–	> 100	> 100	–	–	> 100	> 100	–	> 100	–	–	> 100	5.57
COc1cc(OC)c2c(=O)cc(-c3ccccc3OCc3ccccc3)oc2c1OC	> 100	> 100	–	> 100	> 100	–	34.9	> 100	5.42	–	> 100	–	6.56	> 100	61.8	18.7
COc1cc(C2c3cc4c(cc3OC(O)C2C)OCO4)cc(OC)c1OC (stereo not drawn)	> 51.3	–	> 100	13.3	4.93	> 55.9	> 100	0.503	–	–	–	–	–	–	–	–
N#C/C(=C/N1CCN(C(=O)c2ccco2)C1=S)C(=O)Nc1ccc(Cl)cc1	> 50	> 50	–	39.7	> 50	> 50	> 50	28.7	19.9	–	16.7	21	19.4	10.5	> 50	> 50
C=C(C(=O)OC)[C@@H]1CC2OC1C(=O)C(C)CCC/C(C)=C/CC[C@@]2(C)O (stereo partly drawn)	> 100	> 100	> 100	> 100	–	> 100	71.1	–	50.5	36.9	37.8	43.5	20.8	–	–	59.8
O=c1cc(-c2ccccc2)[nH]c2c1CCCC2	> 100	–	8.56	> 100	> 100	> 100	> 100	> 100	3.01	2.01	4.19	1.14	70.6	1.62	1.8	–
